pIC50: −log10 of the molar value. Blank lines part the entries; values can stand above or below the compound they belong to. Non-standard residues stand in square brackets, D forms with d. Residues, ends and D or L forms follow the SMILES beside them. *: point of attachment. Bz = O=C(c1ccccc1)*
What was measured:
[1] = tested on: mice; test: Imiquimod (IMQ) psoriasis mouse model; assay type: in vivo; conditions: 30 mpk P.O., BID, 5% imiquimod, Day 0 to Day 7
Description: From Day 0 to Day 7, 5% w/w of imiquimod (IMQ) in water was administered to the mice by PO to induce psoriasis. From Day 0 to Day 7, mice were treated with Compound 1, clobetasol, or dexamethasone. At Day 7, the mice were euthanized.
FIGS. 10A and 10B illustrate the effect of Compound 1 at 30 mpk (P.O., BID) as compared to naive control, vehicle control, 0.05% clobetasol, and dexamethasone at 1 mpk (P.O., QD) on psoriasis in a mouse model. The graphs show the changes in ear thickness and Psoriasis Area and Severity Index (PASI) score over time.

[2] = tested on: mice; test: MC903-induced atopic dermatitis mouse model (Example 11); assay type: in vivo; conditions: 3, 10, 30 mpk PO, BID, MC903, Day 14
Description: From Day 1 to Day 14, 2 nmol in 100% ethanol, 50 μl/mouse/back skin (MC903) was administered every other day to mice to induce atopic dermatitis. From Day 1 to Day 14, mice were treated with Compound 1 or clobetasol. At Day 14, the mice were euthanized.
FIGS. 11A-11C illustrate the effects of Compound 1 at 3 mpk, 10 mpk, and 30 mpk (PO, BID) as compared to normal control, vehicle control, and 0.05% clobetasol (topical, QD) (comparative) on atopic dermatitis in a mouse model.

[3] = tested on: mice; test: DSS mouse model of colitis; assay type: in vivo; conditions: 30 mpk, 2% DSS, Day 8
Description: From Day-3 to Day 8, mice were treated with Compound 1, fingolimod, or mesalamine. From Day-3 to Day 0, mice were randomized and acclimated to their environment while assessing a disease activity index (DAI). At Day 1, 2% w/w of DSS in water was administered to the mice by PO. From Day 1 to Day 7, DAI continued to be assessed. At Day 8, the mice were euthanized post the final dose of Compound 1, fingolimod, or mesalamine.
FIGS. 8A-8D present the efficacy of Compound 1 at 30 mpk as compared to vehicle control, DSS control, fingolimod at 1 mpk (comparative), and mesalamine at 50 mpk (comparative) in a DSS mouse model of colitis. The graphs show the effect of Compound 1 on disease activity index, stool consistency, rectal bleeding index, and combined histopathology.

[4] = tested on: mice; test: Chlorhexidine gluconate-induced peritoneal fibrosis model; assay type: in vivo, mouse; conditions: 10, 30, 100 mpk, 0.1% CG, Day 22
Description: From Day 1 to Day 21, 0.1% w/w of chlorhexidine gluconate (CG) in water was administered, every other day, to the mice by PO to induce peritoneal fibrosis. From Day 1 to Day 21, mice were treated with Compound 1 or an inhibitor of TGFβ receptor I (ALK5) (SB525334). At Day 22, the mice were euthanized.
FIGS. 9A and 9B illustrate the effect of Compound 1 at 10, mpk, 30, mpk, and 100 mpk as compared to sham control, 0.1% chlorhexidine gluconate (CG) and vehicle, and an inhibitor of TGFβ receptor I (ALK5) (SB525334) at 30 mpk (comparative), and mesalamine at 50 mpk (comparative) on average peritoneal thickness and α-SMA expression in a mouse model of peritoneal fibrosis.

[5] = tested on: mice; test: Bleomycin-induced pulmonary fibrosis model, prophylactic and treatment groups (Example 3); assay type: in vivo, mouse
Description: Prophylactic group (P): At Day 0, prophylactic treatment of mice (P) with Compound 1 or pirfenidone by PO was performed. From Day 0 to Day 20, the prophylactically treated mice (P) were intratracheally instilled with bleomycin. At Day 21, the mice (P) were euthanized.
Treatment group (T): Likewise, from Day 0 to Day 7, naïve mice (T) were intratracheally instilled with bleomycin. At Day 7, the naïve mice were treated with Compound 1. Bleomycin instillation continued to Day 20. At Day 21, the mice (T) were euthanized.
FIGS. 2A-2D and FIGS. 3A-3G illustrate the therapeutic effects of Compound 1 at 10 mpk (P), 30 mpk (P), 100 mpk (P), and 100 mpk (T), as compared to a normal control, treatment-free control (bleomycin), and pirfenidone (comparative) at 100 mpk (P) in a bleomycin-induced model of pulmonary fibrosis.

[6] = tested on: mice; test: Bleomycin-induced pulmonary fibrosis model, prophylactic, 21 days (Example 2); assay type: in vivo, mouse; conditions: PO, Day 21
Description: At Day 0, prophylactic treatment of mice with Compound 3 or pirfenidone by PO was performed. From Day 0 to Day 20, the prophylactically treated mice were intratracheally instilled with bleomycin. At Day 21, the mice were euthanized.
As depicted in FIGS. 1A-1F, a series of bar graphs illustrate the reduction in fibrotic symptoms in a bleomycin-induced pulmonary fibrosis model upon treatment with Compound 3 at 1 mpk, 3 mpk, 10 mpk, and 100 mpk as compared to a normal control, treatment-free control (bleomycin), and pirfenidone (comparative) at 100 mpk. Parameters such as collagen deposition, collagen accumulation, collagen fiber formation, inflammatory cytokine expression, and inflammatory cell infiltration were measured.

[7] = tested on: mice; test: LPS-induced acute lung injury model (Example 4); assay type: in vivo, mouse; conditions: 30 mpk PO, aerosolized LPS 1 mg/mL, 4 hours
Description: At time point −1 hour, prophylactic treatment of mice by PO with Compound 3 or dexamethasone was performed. From time point −0.5 hours to 0 hours, neutrophil activation was induced with aerosolized LPS at 1 mg/mL. At timepoint 4 hours, blood, BALF, and lung tissue were harvested.
FIGS. 4A-4G present the effects of Compound 3 at 30 mpk as compared to naive control, treatment-free control (LPS), and dexamethasone (comparative) at 5 mpk on inflammatory cytokines in a lipopolysaccharide (LPS)-induced acute lung injury model. The bar graphs compare the levels of TNF-α, IL-6, IL-36γ, Total cell count (BALF), neutrophils (BALF), neutrophils (blood), and eosinophils (BALF), MIP-2.

[8] = tested on: human precision-cut lung slices; test: Inflammation and fibrosis biomarkers in human precision-cut lung slices; assay type: cell-based; conditions: 5 μM and 50 uM, hPCLS
Description: Cryopreserved human precision-cut lung slices (hPCLS) were prepared and used to analyze biomarkers in inflammatory and fibrotic models. Information of the donors that provided the hPCLS is provided below.
FIGS. 6A-6D illustrate the dose-dependent impact of Compound 3 at 5 μM and 50 uM as compared to vehicle control, nintedanib at 2.5 μM (comparative), and pirfenidone at 2.5 uM (comparative) on biomarkers associated with inflammation and fibrosis in human pulmonary cells.

[9] = tested on: human neutrophils; test: fMLP induced neutrophil chemotaxis; assay type: cell-based; conditions: for pIC50: fMLP (100 nM), Donor 1
Description: (§1) Freshly isolated healthy human neutrophils were isolated and utilized. The neutrophils were treated with IL-8 at 2 nM or fMLP at 100 nM to induced chemotaxis.
(§2) FIGS. 7A and 7B display the percentage of inhibition of 2 nm of IL-8 induced chemotaxis at different compound concentrations of Compound 3 as compared to Navarixin (comparative). FIGS. 7C and 7D display the percentage of inhibition of 100 nm fMLP induced chemotaxis at different compound concentrations of Compound 3 as compared to HCH6-1 (comparative). Table 3 below provides the IC50 values for each stimulus, providing a comparative measure of the compounds' efficacy.

[10] = tested on: mice; test: Bleomycin-induced inflammation and cell counts, 10 days (Example 5); assay type: in vivo, mouse; conditions: 3, 10, 30 mpk PO, Day 10
Description: At Day 0, prophylactic treatment of mice with Compound 3 or pirfenidone by PO was performed. From Day 0 to Day 9, the prophylactically treated mice were intratracheally instilled with bleomycin. At Day 10, the mice were euthanized.
As shown in FIGS. 5A-5G, the impact of Compound 3 at 3 mpk, 10 mpk, and 30 mpk as compared to normal control, treatment-free control (bleomycin), and pirfenidone (comparative) at 100 mpk on various cell counts associated with inflammation was evaluated. The bar graphs compare alveolar macrophage counts, neutrophil counts, lymphocyte counts, inflammation score, eotaxin (BALF), INFγ (lung), and IL-6 (lung).

[11] = tested on: human neutrophils; test: IL-8 induced neutrophil chemotaxis; assay type: cell-based; conditions: for pIC50: IL-8 (2 nM)
Description: as §1, §2

[12] = 10, 30, 100 mpk (P) and 100 mpk (T), bleomycin

Structure (SMILES): C[C@@]1(C#N)[C@H](O)CC[C@]2(C)[C@@H]1CC[C@@]1(C)O[C@H](C3=CCOC3=O)C[C@@H]21 [Compound 1, (2S,3aR,5aS,6R,7R,9aR,9bS)-7-hydroxy-3a,6,9a-trimethyl-2-(2-oxo-2,5-dihydrofuran-3-yl) dodecahydronaphtho[2,1-b]furan-6-carbonitrile]
- skin condition [1]: improvements in skin condition
- symptoms (ear thickness, PASI score) [1]: reduction in symptoms
- dermatitis severity [2]: decrease in dermatitis severity
- skin thickness [2]: decrease
- symptoms of colitis, such as weight loss and increased disease severity [3]: effectively mitigate the symptoms of colitis
- average peritoneal thickness [4]: reduction
- α-SMA expression [4]: reduction
- Ashcroft score [5, 12]: lower the Ashcroft score
- hydroxyproline content [5, 12]: reduce hydroxyproline content
- inflammatory cell infiltration in lung tissue [5, 12]: decrease inflammatory cell infiltration
- fibrosis and lung tissue morphology (histology) ([5]; H&E staining, 100× magnification, compared to control): reduced fibrosis and improved lung tissue morphology

- pIC50 ([9]; Homo sapiens, Neutrophil): 6.10
- pIC50 ([11]; Homo sapiens, Neutrophil, All donors): 5.69
- pIC50 ([11]; Homo sapiens, Neutrophil, Donor 1): 5.85
- pIC50 ([11]; Homo sapiens, Neutrophil, Donor 2): 5.50
- pIC50 ([11]; Homo sapiens, Neutrophil, Donor 3): 5.79
Structure (SMILES): C[C@@]12CCC(=O)N[C@@](C)(C#N)[C@H]1CC[C@@]1(C)O[C@H](C3=CCOC3=O)C[C@@H]21 [Compound 3, (2S,3aR,5aS,6R,10aR,10bS)-3a,6,10a-trimethyl-8-oxo-2-(2-oxo-2,5-dihydrofuran-3-yl) dodecahydro-2H-benzofuro[5,4-c]azepine-6-carbonitrile]
- collagen accumulation [6]: notable decrease
- collagen deposition [6]: notable decrease
- collagen fiber formation [6]: notable decrease
- inflammatory cell infiltration [6]: notable decrease
- inflammatory cytokine expression [6]: notable decrease
- cytokine levels [7]: dose-dependent reduction in cytokine levels
- IL-6 level [8]: corresponding decrease
- IL-8/CXCL8 level [8]: corresponding decrease
- MCP-1/CCL-2 level [8]: corresponding decrease
- inhibition of neutrophil chemotaxis ([9]; induced by fMLP at 100 nM): concentration-dependent inhibition
- inflammation and cell counts [10]: reduction in inflammation and cell counts
- inhibition of neutrophil chemotaxis ([11]; induced by IL-8 at 2 nM): concentration-dependent inhibition

- pIC50 [9]: 6.34
Structure (SMILES): COC(=O)[C@@H](Cc1ccccc1)NC(=O)[C@H](Cc1c[nH]c2ccccc12)NC(=O)c1ccccc1 [HCH6-1, reference compound] (Bz-Trp-[dF]-OMe)

- pIC50 ([11]; All donors): 5.63
- pIC50 ([11]; Donor 1): 5.91
- pIC50 ([11]; Donor 2): 5.57
- pIC50 ([11]; Donor 3): 5.50
Structure (SMILES): CC[C@@H](Nc1c(Nc2cccc(C(=O)N(C)C)c2O)c(=O)c1=O)c1ccc(C)o1 [Navarixin, reference compound]

Reference: patent US20260365662A1, “ISOANDROGRAPHOLIDE ANALOGS AND METHOD FOR TREATMENT USING THE SAME” (Enveda Therapeutics, Inc., priority 2023, published 2026)
